Blank lines part the entries; values can stand above or below the molecule they belong to. Residues, ends and D or L forms follow the SMILES beside them. No end group written: not given here. *: point of attachment. Succinimide(1-Et,3-yl) = CCN1C(=O)CC(*)C1=O; Palmitoyl = CCCCCCCCCCCCCCCC(=O)*
Key:
[1] = biological target: T1, rat NMUR1-ATG (Rattus norvegicus, UniProt Q9JJI5); assay: FLIPR calcium mobilization assay, rat NMUR1-ATG; assay type: cell-based; parameters: expressed in transfected cells; host or cells: FLP-In CHO or HEK-293 FLP-In cells (pcDNA5); conditions: for % Activity: maximum response at 1 μM compared to hNMU-25; for % Activity / EC50: rat NMUR1-ATG; for EC50: FLIPR
T1 sequence (Q9JJI5 1-425): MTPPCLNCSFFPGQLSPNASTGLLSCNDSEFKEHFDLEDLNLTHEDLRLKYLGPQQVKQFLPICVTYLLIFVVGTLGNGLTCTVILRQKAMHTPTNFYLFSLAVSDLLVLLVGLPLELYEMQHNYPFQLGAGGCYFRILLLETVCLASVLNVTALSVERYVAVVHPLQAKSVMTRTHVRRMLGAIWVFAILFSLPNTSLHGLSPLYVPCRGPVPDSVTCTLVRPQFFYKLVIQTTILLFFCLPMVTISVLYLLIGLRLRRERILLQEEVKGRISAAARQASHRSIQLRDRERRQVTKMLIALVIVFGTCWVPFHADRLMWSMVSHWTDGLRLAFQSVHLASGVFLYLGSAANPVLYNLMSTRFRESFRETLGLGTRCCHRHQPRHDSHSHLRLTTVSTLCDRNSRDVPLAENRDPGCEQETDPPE
Excerpt: (§1) Human, mouse or rat cDNAs encoding NMUR1 or NMUR2 (as described in Howard et al. Nature 406: 70-74 (2000) were subcloned in pcDNA5 (Invitrogen) and transfected into FLP-In CHO cells and HEK-293 FLP-In cells purchased from Invitrogen (Carlsbad, Calif.) using lipofectamine (Invitrogen). The Flp-In system allows integration and expression of a particular gene of interest at a specific genomic location utilizing the Flp recombinase from yeast. The transfected cells were selected by growth in medium containing 200 μg/mL hygromycin (Invitrogen). Populations were frozen at early passage numbers, and these stocks were used for further studies. Stable clones that expressed the mRNAs were identified functionally by FLIPR as well as by RT-PCR. […] Two different rodent NMUR1 cell lines were thus generated: one with the codon as predicted from the genomic databases and another cell line with an engineered methionine (ATG) as the start codon. Additionally, stable cell lines expressing the human receptors were generated in HEK-293/aeq17 cells which stably express the aequorin gene under the CMV promoter. The human NMUR2 cDNA was cloned into pcDNA3.1 and human NMUR1 was subcloned into pIRES-puro (Clontech, Mountain View, Calif.), after transfection cells were selected in media containing G418 and either hygromycin (NMUR2) or puromycin (NMUR1).
(§2) The NMU receptors signal primarily through Gαq/11 proteins; therefore calcium mobilization assays can be utilized for functional activity.
(§3) Stable cell lines expressing human and or rodent NMUR1 or human NMUR2 receptors were plated at a density of 12,000 cells per well overnight on poly-lysine coated 384-well black-walled plates. The following day, the media was removed from the plates and the cells were subsequently loaded with Fluo-3 (Molecular Probes), a calcium sensitive dye, diluted in FLIPR buffer (1× Hank's buffered saline containing 20 mM HEPES, 0.1% BSA, 2.5 mM probenecid (Sigma) and 1.6 mM TR40). All reagents are from Invitrogen unless otherwise noted. Peptide stocks were resuspended in DMSO at a stock concentration of 2 mM and diluted in FLIPR buffer on the day of the experiment to a 4 μM working stock solution.
(§4) After a 90 minute incubation at room-temperature, cell plates were loaded onto a FLIPR (Molecular Devices) to monitor cellular fluorescence (excitation=488 nm; emission=540 nm) before and after compound/peptide addition. Eight to twelve point dose responses were tested on NMUR-expressing cell lines using FLIPR with 1 μM peptide as the highest dose. The response after peptide addition was taken as the maximum fluorescence units minus the fluorescence immediately prior to stimulation for each well. EC50 values were calculated using GraphPad Prism (San Diego, Calif.) software.
(§5) In vitro responses of Neuromedin U receptor agonists (NMU1 to NMU25) in the FLIPR assay for human (Table 3), mouse (Table 4) and rat (Table 5) NMUR1 and NMUR2. EC50s are reported in nM values. Percent activity refers to the maximum response at 1 μM compared to the hNMU-25 response at the same concentration. NT=not tested.

[2] = biological target: T2, mouse NMUR1-ATG (Mus musculus, UniProt O55040); assay: FLIPR calcium mobilization assay, mouse NMUR1-ATG; assay type: cell-based; parameters: expressed in transfected cells; host or cells: FLP-In CHO or HEK-293 FLP-In cells (pcDNA5); conditions: for % Activity: maximum response at 1 μM compared to hNMU-25; for % Activity / EC50: mouse NMUR1-ATG; for EC50: FLIPR
T2 sequence (O55040 1-428): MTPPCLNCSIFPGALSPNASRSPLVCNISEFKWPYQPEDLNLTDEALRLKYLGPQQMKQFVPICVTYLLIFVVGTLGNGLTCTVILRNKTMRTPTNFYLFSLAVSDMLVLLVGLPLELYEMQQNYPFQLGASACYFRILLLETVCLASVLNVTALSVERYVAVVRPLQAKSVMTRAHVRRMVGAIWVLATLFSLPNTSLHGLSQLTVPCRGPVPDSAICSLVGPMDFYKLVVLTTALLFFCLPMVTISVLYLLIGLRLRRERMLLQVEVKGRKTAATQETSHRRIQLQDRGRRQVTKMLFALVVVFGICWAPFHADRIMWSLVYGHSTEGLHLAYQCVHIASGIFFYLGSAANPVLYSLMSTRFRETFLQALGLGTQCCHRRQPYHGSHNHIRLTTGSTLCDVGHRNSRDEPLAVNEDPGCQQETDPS
Excerpt: as §1, §2, §3, §4, §5

Molecule: Ac-C2FQSPFASQSRGYFLFRPRN-CONH2 ({Ac-C(PEG 40 kDa)}-FQSPFASQSRGYFLFRPRN-NH2; not fully specified; printed as Ac-C2FQSPFASQSRGYFLFRPRN-CONH2) [NMU20, C2 = Cys(PEG)240 kDa]
EC50 [1]: 7.2 nM
EC50 [2]: 12.7 nM

Molecule: Ac-C2FRVDEEFQSPFASQSRGYFLFRPRN-CONH2 [NMU9] ({Ac-C(PEG 40 kDa)}-FRVDEEFQSPFASQSRGYFLFRPRN-NH2) [C2 = Cys(PEG)240 kDa from Nektar (mPEG2-MAL-40 k)]
EC50 [1]: 9.7 nM
EC50 [2]: 45.7 nM
% Activity [2]: 95.0%

Molecule: Ac-C4FRVDEEFQSPFASQSRGYFLFRPRN-CONH2 ({Ac-C(PEG 20 kDa)}-FRVDEEFQSPFASQSRGYFLFRPRN-NH2) [NMU21, C4 = Cys(PEG)20 kDa]
EC50 [1]: 19.5 nM
% Activity [1]: 99.9%
EC50 [2]: 9.1 nM

Molecule: Ac-FRVDEEFQSPFASQSRGYFLFRPRN-NH2 [NMU2]
% Activity [1]: 89.2%
% Activity [2]: 100%

Molecule: Ac-FRVDEEFQSPFASQSRPYFLFRPRN-NH2 [NMU5]
% Activity [1]: 100%
% Activity [2]: 100%

Molecule: GYFLFRPRN-NH2 [NMU3]
% Activity [1]: 100%
% Activity [2]: 100%

Molecule: H-FRVDEEFQSPFASQSRGYFLFRPRN-NH2 [hNMU-25, reference compound]
IC50 ([1]; functional data, rat R1-ATG): 1.3 nM
IC50 ([2]; functional data, mouse R1-ATG): 0.9 nM

Molecule: H-FRVDEEFQSPFASQSRPYFLFRPRN-NH2 [NMU4]
% Activity [1]: 100%
% Activity [2]: 100%

Other lines, results leading:

% Activity [1]: 100%
% Activity [2]: 100%
Molecule: CCN1C(=O)CC(SC[C@H](NC(C)=O)C(=O)N[C@@H](CSC2CC(=O)N(CC)C2=O)C(=O)N[C@@H](Cc2ccccc2)C(=O)N[C@@H](CCCNC(=N)N)C(=O)N[C@H](C(=O)N[C@@H](CC(=O)O)C(=O)N[C@@H](CCC(=O)O)C(=O)N[C@@H](CCC(=O)O)C(=O)N[C@@H](Cc2ccccc2)C(=O)N[C@@H](CCC(N)=O)C(=O)N[C@@H](CO)C(=O)N2CCC[C@H]2C(=O)N[C@@H](Cc2ccccc2)C(=O)N[C@@H](C)C(=O)N[C@@H](CO)C(=O)N[C@@H](CCC(N)=O)C(=O)N[C@@H](CO)C(=O)N[C@@H](CCCNC(=N)N)C(=O)NCC(=O)N[C@@H](Cc2ccc(O)cc2)C(=O)N[C@@H](Cc2ccccc2)C(=O)N[C@@H](CC(C)C)C(=O)N[C@@H](Cc2ccccc2)C(=O)N[C@@H](CCCNC(=N)N)C(=O)N2CCC[C@H]2C(=O)N[C@@H](CCCNC(=N)N)C(=O)N[C@@H](CC(N)=O)C(N)=O)C(C)C)C1=O (stereo partly shown) [NMU22] (Ac-C(Succinimide(1-Et,3-yl))C(Succinimide(1-Et,3-yl))FRVDEEFQSPFASQSRGYFLFRPRN-NH2)

% Activity [1]: 80.8%
% Activity [2]: 81.4%
Molecule: CCCCCCCCCCCCCCCC(=O)N[C@@H](CSC1CC(=O)N(CC)C1=O)C(=O)N[C@@H](Cc1ccccc1)C(=O)N[C@@H](CCCNC(=N)N)C(=O)N[C@H](C(=O)N[C@@H](CC(=O)O)C(=O)N[C@@H](CCC(=O)O)C(=O)N[C@@H](CCC(=O)O)C(=O)N[C@@H](Cc1ccccc1)C(=O)N[C@@H](CCC(N)=O)C(=O)N[C@@H](CO)C(=O)N1CCC[C@H]1C(=O)N[C@@H](Cc1ccccc1)C(=O)N[C@@H](C)C(=O)N[C@@H](CO)C(=O)N[C@@H](CCC(N)=O)C(=O)N[C@@H](CO)C(=O)N[C@@H](CCCNC(=N)N)C(=O)NCC(=O)N[C@@H](Cc1ccc(O)cc1)C(=O)N[C@@H](Cc1ccccc1)C(=O)N[C@@H](CC(C)C)C(=O)N[C@@H](Cc1ccccc1)C(=O)N[C@@H](CCCNC(=N)N)C(=O)N1CCC[C@H]1C(=O)N[C@@H](CCCNC(=N)N)C(=O)N[C@@H](CC(N)=O)C(N)=O)C(C)C (stereo partly shown) [NMU24] (Palmitoyl-C(Succinimide(1-Et,3-yl))FRVDEEFQSPFASQSRGYFLFRPRN-NH2)

EC50 [1]: 127 nM
% Activity [1]: 76.4%
EC50 [2]: 14 nM
Molecule: Ac-C4-C4-FRVDEEFQSPFASQSRGYFLFRPRN-CONH2 ({Ac-C(PEG 20 kDa)-C(PEG 20 kDa)}-FRVDEEFQSPFASQSRGYFLFRPRN-NH2) [NMU23, C4 = Cys(PEG)20 kDa]

EC50 [1]: 20.1 nM
% Activity [1]: 99.6%
EC50 [2]: 10.2 nM
Molecule: Pam-C2FRVDEEFQSPFASQSRGYFLFRPRN-CONH2 ({Palmitoyl-C(PEG 40 kDa)}-FRVDEEFQSPFASQSRGYFLFRPRN-NH2) [NMU25, Pam = palmitoyl; C2 = Cys(PEG)240 kDa]
